Key:
GSDMD [1] = biological target: T1, GSDMD (Homo sapiens, UniProt P57764); test: Recombinant GSDMD cleavage by caspase-4; type: biochemical; conditions: 10 μM
T1 sequence (P57764 1-484): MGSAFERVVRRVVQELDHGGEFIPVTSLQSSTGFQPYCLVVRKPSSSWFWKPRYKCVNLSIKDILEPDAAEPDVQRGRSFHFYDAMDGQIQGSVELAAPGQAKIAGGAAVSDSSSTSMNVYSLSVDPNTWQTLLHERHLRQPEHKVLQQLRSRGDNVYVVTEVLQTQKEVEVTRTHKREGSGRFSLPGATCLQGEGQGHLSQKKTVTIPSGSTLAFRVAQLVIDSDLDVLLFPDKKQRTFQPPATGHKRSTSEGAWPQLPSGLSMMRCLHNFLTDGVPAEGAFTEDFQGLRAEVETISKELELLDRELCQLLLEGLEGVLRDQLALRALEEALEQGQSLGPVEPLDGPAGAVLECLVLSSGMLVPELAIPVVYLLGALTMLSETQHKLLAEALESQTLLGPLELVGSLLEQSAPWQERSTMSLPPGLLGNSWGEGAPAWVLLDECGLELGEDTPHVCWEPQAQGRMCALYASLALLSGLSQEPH
Method: 1 μg recombinant GSDMD ([Aglietti et al., 2016]) was incubated with 10 μM LDC7559, 30 μM zVAD-fmk, or DMSO vehicle for 20 min, and then combined with 0.15 μg recombinant caspase-4 (750 mU; Abcam) in 20 μL of 50 mM HEPES, pH 7.2, 50 mM NaCl, 0.1% Chaps, 10 mM EDTA and 5% glycerol for 30 min at 37°C.

IL-1β = test: GSDMD-dependent IL-1β release from monocytes; type: cell-based, human; conditions: nigericin or poly(dA-dT)
Method: Primary human monocytes were primed with 1 μg/mL ultrapure LPS and 1μg/mL Pam3CSK4 for 3 h. THP-1 cells were primed with 1 μg/mL Pam3CSK4 for 4 h. Primed cells (1 × 10^5) were treated for 1 h with DMSO vehicle, 5 μM LDC7559 (unless indicated otherwise), 10 μM MCC950, or 50 μM VX765, and then for 1 h with 10 μg/mL nigericin, or 25 μg/mL LPS (electroporated using the NEON electroporation system; ThermoFisher Scientific), or they were transfected over 3 h with 1 μg/mL poly(dA-dT) using lipofectamine 2000 (0.5 μL/well).
(§1) LDH released into the culture medium was measured 1-3 h post-activation using a CellTox Green Cytotoxicity assay (Promega). IL-1β secretion was measured using a MSD Cytokine Assay, 96-well multi-array Tissue Culture Kit (Meso Scale Discovery). For immunoblotting, monocytes (2 × 10^6) were treated with 10-50 μM LCD7559 or 50 μM VX765 and electroporated with 25 μg/mL LPS using the NEON electroporation system. Cells were lysed after 1 h using lysis buffer (50 mM Tris pH 7.4, 150 mM NaCl, 10% glycerol, 1% NP-40, 1 mM MgCl and 1X Roche cOmplete protease inhibitor cocktail) and protein concentration was determined via BCA protein assay (Peirce). Antibodies for immunoblotting were GSDMD (L60, Cell Signaling Technologies), cleaved GSDMD-Asp275 (E7H9G, Cell Signaling Technologies) and GAPDH (14C10, Cell Signaling Technologies).

GSDMD [2] = biological target: T1, GSDMD; test: LPS-induced cleavage of GSDMD in monocytes (western blot); type: cell-based; design: endogenous in cells; host or cells: primary human monocytes electroporated with LPS; conditions: monocytes electroporated with LPS
Method: as §1

MEK or ERK = test: PMA-induced MEK/ERK activation in neutrophils (western blot); type: cell-based, human
Method: Figure S3. Chemoproteomic analysis of covalent crosslinking using photolabeling probe PALP1, related to Figure 2
(A) Volcano plots of the fold change in peptides detected after afﬁnity pull-downs using PALP1 and PALP6. P values were calculated by Student’s t test across
three replicates. (B and C) Spectral counts of all PFKL (B) or TBB4B (C) peptides across replicates (left) or with individual peptides distinguished by color (right). (D)
Activity of recombinant NAMPT. Bars represent the mean ± s.d. of 3 independent experiments. (E) western blots of PMNs pretreated with 0.5 mM NA-11 or 1 mM
MEK1/2 inhibitor U0126 for 30 min, and then activated with 50 nM PMA for 30 min. Results are representative of 3 independent experiments.
(1 picture or pasted object on this page, not shown here)

PMNs = test: LC-MS of glycolysis and pentose phosphate pathway metabolites; type: cell-based, human
Method: Neutrophils (1 × 10^7) were untreated or pretreated with 0.5 μM NA-11 for 25 min, and then activated with 50 nM PMA for 30 min. Cell were washed twice in D-PBS and frozen in liquid nitrogen. Metabolites were extracted following protein precipitation using 500 μL cold (−80°C) MeOH:H2O (8:2, V:V) mixture. Aliquots (250 μL) were evaporated and reconstituted with 75 μL of MeOH:H2O (8:2, V:V) containing a series of stable isotope labeled internal standards. LC-MS analysis was performed on a Shimadzu Nexera HPLC series system (Shimadzu, Kyoto, Japan) couple with a Thermo Q Exactive Plus Hybrid Quadrupole-Orbitrap Mass Spectrometer (Thermo Fisher Scientific, Waltham, MA, USA). A Phenomenex Luna NH2 HPLC column (100 Å, 250 mm × 2 mm × 3 μm, Phenomenex, Torrance, CA, USA) was used to separate the analytes of interest. Samples (5 μL) were analyzed under Heated Electrospray Ionization (HESI) in negative mode with a flow rate of 0.4 mL/min and a total run time of 50 min. The mobile phases consisted of (A) 20 mM ammonium hydroxide and 20 mM ammonium acetate in H2O and (B) acetonitrile. The gradient was 0 min, 85% B; 0.5 min, 85% B; 15 min, 0% B; 38 min, 0% B; 40 min, 85% B; 50 min, 85% B. The autosampler temperature was 4°C, and the column temperature was 40°C. The Q Exactive Plus Mass Spectrometer parameters were: sheath gas flow rate, 50 units; aux gas flow rate, 13 units; aux gas temperature, 425°C; capillary temperature, 263°C; spray voltage, −2500 V; scan mode, full MS; scan range, 60-900 m/z; resolution, 70,000; AGC target, 3 × 10^6; maximum IT, 200 ms. Data was processed with TraceFinder (Thermo Fisher Scientific, Waltham, MA, USA). %RSDs of a series of stable isotope-labeled internal standards were calculated to check system suitability and data robustness. Relative MS peak area ratio (Peak Area of Analyte / Peak Area of Internal Standard) was used for compound quantification. […] Pyruvate concentration was quantified using a calibration curve of chemical standard (with stable isotope labeled internal standard, Pyruvate-^13C3) in the surrogate matrix.

[3] = in the context of PMA activation

Structure (SMILES): COc1ccccc1-c1cc2n(n1)Cc1ccc(NC(C)=O)cc1OC2 [LDC7559, reference compound]
- cleavage of recombinant GSDMD by caspase-4 (GSDMD [1]): did not inhibit cleavage of recombinant GSDMD by caspase-4
- GSDMD-dependent release of IL-1β (IL-1β): occurred normally
- LPS-induced cleavage of GSDMD (GSDMD [2]): did not prevent LPS-induced cleavage of GSDMD

Structure (SMILES): CC(=O)Nc1ccc2c(c1)OCc1cc(-c3ccccc3C#CCCCO)nn1C2 [NA-11]
- PMA-induced activation of MEK or ERK (MEK or ERK): did not perturb PMA-induced activation of MEK or ERK
- levels of FBP (PMNs; compound alone, no PMA): slightly increased levels of FBP
- glycolysis metabolites (FBP, DHAP, G-3-P) (PMNs; [3]): increased glycolysis metabolites
- pentose phosphate pathway metabolites (PMNs; [3]): maintained pentose phosphate pathway metabolites at baseline levels

From paper PMC8802628, “Selective activation of PFKL suppresses the phagocytic oxidative burst” (Cell, 2021)
